Experimental data published in the supplement of paper PMC10307832.

Columns and labels:
Test in all cases: relative viability (nuclei count vs DMSO), 5 days (fraction); higher = more cells survive
[1] = compound: CC(C)C[C@H](NC(=O)[C@H](CCc1ccccc1)NC(=O)CN1CCOCC1)C(=O)N[C@@H](Cc1ccccc1)C(=O)N[C@@H](CC(C)C)C(=O)[C@@]1(C)CO1 [Carfilzomib] + CC(=O)c1c(C)c2cnc(Nc3ccc(N4CCNCC4)cn3)nc2n(C2CCCC2)c1=O [Palbociclib] (partner 0.5 µM)
Outline: (§1)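 One day after seeding in 1536-well plates, lung cancer cell lines were dosed by pin tool. Dosing was either single-drug or a fixed anchor-drug dose plus five library-drug doses (not always all listed) in √10 steps. After 5 days, nuclei were stained in one fix-and-stain step and counted on 4× images, and relative viability is the nuclei count of treated wells over that of vehicle wells, given as the median of duplicate plates.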

[2] = compound: O=C(c1cc(Cc2n[nH]c(=O)c3ccccc23)ccc1F)N1CCN(C(=O)C2CC2)CC1 [Olaparib] + CS(=O)(=O)N1CCN(Cc2cc3nc(-c4cccc5[nH]ncc45)nc(N4CCOCC4)c3s2)CC1 [Pictilisib] (partner 1 µM)
Outline: as §1

[3] = compound: O=C(c1cc(Cc2n[nH]c(=O)c3ccccc23)ccc1F)N1CCN(C(=O)C2CC2)CC1 [Olaparib] + C[C@]1(O)C[C@@H](c2nc(-c3ccc4ccc(-c5ccccc5)nc4c3)c3c(N)nccn32)C1 [Linsitinib] (partner 1 µM)
Outline: as §1

[4] = compound: O=C(c1cc(Cc2n[nH]c(=O)c3ccccc23)ccc1F)N1CCN(C(=O)C2CC2)CC1 [Olaparib] + Cc1nc(NC(=O)N2CCC[C@H]2C(N)=O)sc1-c1ccnc(C(C)(C)C(F)(F)F)c1 [Alpelisib] (partner 2 µM)
Outline: as §1

Row | Cell Line | relative viability ([1]; first compound 0.001 µM) | relative viability ([1]; first compound 0.003162 µM) | relative viability ([1]; first compound 0.01 µM) | relative viability ([1]; first compound 0.03162 µM) | relative viability ([1]; first compound 0.1 µM) | relative viability ([2]; first compound 0.08 µM) | relative viability ([2]; first compound 0.253 µM) | relative viability ([2]; first compound 2.53 µM) | relative viability ([2]; first compound 8 µM) | relative viability ([3]; first compound 0.08 µM) | relative viability ([3]; first compound 0.253 µM) | relative viability ([3]; first compound 2.53 µM) | relative viability ([3]; first compound 8 µM) | relative viability ([4]; first compound 0.253 µM) | relative viability ([4]; first compound 2.53 µM) | relative viability ([4]; first compound 8 µM) | relative viability ([4]; first compound 0.08 µM)
1 | NCI-H441 | 0.217 | 0.219 | 0.178 | 0.0969 | 0.155 | 0.676 | 0.387 | 0.552 | 0.456 | 0.658 | 0.528 | 0.544 | 0.485 | 0.541 | 0.568 | 0.487 | –
2 | NCI-H460 | 0.125 | 0.225 | 0.0809 | 0.0983 | 0.0171 | 0.404 | 0.319 | 0.342 | 0.27 | 0.86 | 0.614 | 0.316 | 0.191 | 0.38 | 0.238 | 0.173 | 0.62
3 | NCI-H520 | 0.187 | 0.217 | 0.162 | 0.133 | 0.144 | 0.318 | 0.315 | 0.278 | 0.236 | 1.17 | 0.825 | 0.872 | 0.663 | 0.843 | 0.814 | 0.529 | 1.05
4 | NCI-H647 | 0.458 | 0.45 | 0.306 | 0.0189 | 0.0185 | 0.66 | – | 0.486 | 0.515 | 1.4 | 1.05 | 0.919 | 0.779 | 1.05 | 1.29 | 0.954 | 1.41
5 | NCI-H650 | 0.331 | 0.362 | 0.367 | 0.224 | 0.14 | 1.03 | 0.912 | 0.661 | 0.748 | 0.806 | 0.735 | 0.776 | 0.724 | 1.17 | 1.04 | 0.84 | 1.33
6 | NCI-H661 | 0.423 | 0.414 | 0.472 | 0.398 | 0.318 | 0.431 | 0.399 | 0.439 | 0.386 | 0.773 | 0.593 | 0.518 | 0.573 | 0.511 | 0.618 | 0.455 | 0.87
7 | NCI-H727 | 0.575 | 0.607 | 0.628 | 0.584 | 0.417 | 0.416 | 0.446 | 0.352 | 0.284 | 0.283 | 0.241 | 0.247 | 0.282 | 0.527 | 0.597 | 0.332 | 0.607
8 | NCI-H838 | 0.209 | 0.226 | 0.268 | 0.193 | 0.102 | 0.452 | 0.439 | 0.519 | 0.408 | 1.05 | 0.928 | 0.971 | 0.933 | 0.933 | 0.978 | 0.944 | 1.09
9 | NCI-H1355 | 0.41 | 0.419 | 0.432 | 0.422 | 0.139 | 0.537 | 0.397 | 0.408 | 0.444 | 0.882 | 0.811 | 0.775 | 0.637 | 0.716 | 0.825 | 0.798 | 0.804
10 | NCI-H1395 | – | 0.676 | 0.635 | 0.497 | 0.31 | 0.78 | 0.639 | 0.575 | 0.534 | 1.14 | 0.896 | 0.67 | 0.734 | 0.748 | 0.662 | 0.504 | 1
11 | NCI-H1437 | 0.318 | 0.329 | 0.415 | 0.296 | 0.213 | 0.373 | 0.395 | 0.501 | 0.381 | 1.18 | 0.927 | 1.02 | 0.788 | 0.987 | 0.929 | 0.764 | 0.987
12 | NCI-H1651 | 0.521 | 0.549 | 0.485 | 0.151 | 0.0991 | 0.62 | 0.562 | 0.599 | 0.331 | 1.01 | 0.821 | 0.679 | 0.297 | 0.869 | 0.714 | 0.356 | 0.927
13 | NCI-H1666 | 0.674 | 0.67 | 0.651 | 0.615 | 0.488 | 0.637 | 0.33 | 0.488 | 0.52 | 0.901 | 0.841 | 0.75 | 0.655 | 0.945 | 0.844 | 0.676 | 1.01
14 | NCI-H1734 | 0.346 | 0.382 | 0.354 | 0.315 | 0.105 | 0.469 | 0.471 | 0.419 | 0.336 | 0.998 | 0.809 | 0.799 | 0.579 | 0.612 | 0.623 | 0.519 | 0.669
15 | NCI-H1755 | 0.465 | 0.458 | 0.461 | 0.408 | 0.293 | 0.553 | 0.383 | 0.405 | 0.338 | 1.03 | 0.917 | 0.92 | 0.918 | 0.867 | 0.898 | 0.841 | 1.05
16 | NCI-H1792 | 0.655 | 0.646 | 0.707 | 0.634 | 0.466 | 0.265 | 0.241 | 0.265 | 0.217 | 0.7 | 0.46 | 0.421 | 0.324 | 0.596 | 0.56 | 0.506 | 0.675
17 | NCI-H1915 | 0.479 | 0.513 | 0.521 | 0.514 | 0.0575 | 0.928 | 0.845 | 0.746 | 0.473 | 1.14 | 1.02 | 0.734 | 0.651 | 0.938 | 0.767 | 0.59 | 0.986
18 | NCI-H1944 | 0.318 | 0.361 | 0.372 | 0.318 | 0.152 | 0.363 | 0.319 | 0.328 | 0.351 | 1.22 | 1.05 | 1.12 | 0.876 | 0.743 | 0.699 | 0.717 | 0.881
